From US20230146455A1, “TREATMENT OF INFLAMMATORY DISEASES WITH PEPTIDES AND PHARMACEUTICAL COMPOSITIONS” (Yuyu Pharma, Inc., priority 2020, published 2023)
Values joined by “and” are separate entries in the source; they are usually repeats but may differ in a detail not shown here. Identical values can stand only once. Where a SMILES comes first, the peptide text is derived from it. [ ]: non-standard residue; d: D form. Hyp = O=C(O)[C@@H]1C[C@@H](O)CN1

Columns and labels:
[1] = system: CCL3/MIP-1 alpha; experiment: Example 9 Luminex, LPS hPBMCs: CCL3/MIP-1 alpha; assay type: cell-based, human
Procedure: (§1) Treatment Human PBMCs were pretreated with YY-101, YDE-011 and YDE-043 or reference compound; Xiidra® at various concentration (ranging from 1 nM to 100 uM) for 2 h before stimulation. An equal volume of 0.5% DMSO was used as a vehicle control. Then, the cells were treated with LPS at 5 ug/ml. The supernatants from treated cells were harvested at 24 h and placed in a 96 well for Luminex cytokine & chemokine profiling using a Luminex 200 multiplex assay (Luminex; R&D system, USA).
(§2) The main study arm with triplicate wells per group in a 24-well plate: • 1. Blank • 2. PBMC: 0.5% DMSO • 3. PBMC+LPS (5 ug/ml) • 4. PBMC+YY-101 100 uM • 5. PBMC+YY-101 10 uM • 6. PBMC+YY-101 1 uM • 7. PBMC+YY-101 0.1 uM • 8. PBMC+YY-101 0.01 uM • 9. PBMC+LPS (5 ug/ml)+Xiidra®100 uM • 10. PBMC+LPS (5 ug/ml)+Xiidra® 10 uM • 11. PBMC+LPS (5 ug/ml)+Xiidra® 1 uM • 12. PBMC+LPS (5 ug/ml)+Xiidra®0.1 uM • 13. PBMC+LPS (5 ug/ml)+Xiidra®0.01 uM • 14. PBMC+LPS (5 ug/ml)+Xiidra®0.001 uM • 15. PBMC+LPS (5 ug/ml)+YY-101 100 uM • 16. PBMC+LPS (5 ug/ml)+YY-101 10 uM • 17. PBMC+LPS (5 ug/ml)+YY-101 1 uM • 18. PBMC+LPS (5 ug/ml)+YY-101 0.1 uM • 19. PBMC+LPS (5 ug/ml)+YY-101 0.01 uM • 20. PBMC+LPS (5 ug/ml)+YY-101 0.001 uM • 21. PBMC+LPS (5 ug/ml)+YDE-011 100 uM • 22. PBMC+LPS (5 ug/ml)+YDE-011 10 uM • 23. PBMC+LPS (5 ug/ml)+YDE-011 1 uM • 24. PBMC+LPS (5 ug/ml)+YDE-011 0.1 uM • 25. PBMC+LPS (5 ug/ml)+YDE-011 0.01 uM • 26. PBMC+LPS (5 ug/ml)+YDE-011 0.001 uM • 27. PBMC+LPS (5 ug/ml)+YDE-043 100 uM • 28. PBMC+LPS (5 ug/ml)+YDE-043 10 uM • 29. PBMC+LPS (5 ug/ml)+YDE-043 1 uM • 30. PBMC+LPS (5 ug/ml)+YDE-043 0.1 uM • 31. PBMC+LPS (5 ug/ml)+YDE-043 0.01 uM • 32. PBMC+LPS (5 ug/ml)+YDE-043 0.001 uM
(§3) Multiplex assay was used to measure 30 cytokines and chemokines. The 1:2, 1:10 and 1:200 diluted cell supernatant and serial dilution of the standard were dispensed into a 96 well plate at 50 ul/well. Then, the pre-mixed cocktail of antibody-coated magnetic beads was dispensed at 50 ul/well and incubated at room temperature for 2 h in a horizontal orbital microplate shaker at 800±500 rpm. The beads were washed using a magnetic device to prevent loss. The biotin-antibody was dispensed in 50 ul of each well and incubated at room temperature for 1 h in a shaker at 800±500 rpm. After washing, streptavidin-PE was added at 50 ul/well and incubated at room temperature for 30 min in a shaker under the same conditions. Finally, after washing, wash buffer (100 ul/well) was added to the plate and incubated in a shaker for 2 min. The Luminex™ 200 setting were set according to the manufacturer's protocol. The data was calculated with a standard five-parameter logistic nonlinear regression analysis of the data (xPonent software 4.2, USA). The levels of cytokine/chemokine are normalized to the live cell counts (1×10^5 cells/mL) and presented as concentrations per mL (pg/mL or ng/mL).

[2] = system: IL-4; experiment: Example 9 Luminex, LPS hPBMCs: IL-4; assay type: cell-based, human
Procedure: as §1, §2, §3

[3] = PBMC + LPS(5 ug/ml) + test article 0.001 uM, Mean
[4] = PBMC + LPS(5 ug/ml) + test article 0.001 uM, individual replicates
[5] = PBMC + LPS(5 ug/ml) + test article 0.01 uM, Mean
[6] = PBMC + LPS(5 ug/ml) + test article 0.01 uM, individual replicates
[7] = PBMC + LPS(5 ug/ml) + test article 0.1 uM, Mean
[8] = PBMC + LPS(5 ug/ml) + test article 0.1 uM, individual replicates
[9] = PBMC + LPS(5 ug/ml) + test article 1 uM, Mean
[10] = PBMC + LPS(5 ug/ml) + test article 1 uM, individual replicates
[11] = PBMC + LPS(5 ug/ml) + test article 10 uM, Mean
[12] = PBMC + LPS(5 ug/ml) + test article 10 uM, individual replicates
[13] = PBMC + LPS(5 ug/ml) + test article 100 uM, Mean
[14] = PBMC + LPS(5 ug/ml) + test article 100 uM, individual replicates
[15] = PBMC + test article 1 uM, no LPS, Mean
[16] = PBMC + test article 1 uM, no LPS, individual replicates
[17] = PBMC + test article 10 uM, no LPS, Mean
[18] = PBMC + test article 10 uM, no LPS, individual replicates
[19] = PBMC + test article 100 uM, no LPS, Mean
[20] = PBMC + test article 100 uM, no LPS, individual replicates
[21] = PBMC + LPS(5 ug/ml) + test article 0.001 uM, single replicates
[22] = PBMC + LPS(5 ug/ml) + test article 0.01 uM, single replicates

SMILES: CC(C)C[C@H](NC(=O)CNC(=O)[C@H](CC(=O)O)NC(=O)[C@H](CCC(N)=O)NC(=O)CNC(=O)[C@@H]1C[C@@H](O)CN1)C(=O)N[C@@H](C)C(=O)NCC(=O)N1CCC[C@H]1C(=O)N[C@@H](CCCCN)C(=O)O [YY-101] (H-[Hyp]GQDGLAGPK-OH; N-terminus and C-terminus assumed)
- Concentration [1, 3]: 26885.9 pg/mL
- conc/live cell [1, 3]: 4200.1 pg/10^5
- Concentration [1, 4]: 27986.1 pg/mL and 27195.8 pg/mL and 25475.7 pg/mL
- conc/live cell [1, 4]: 4909.8 pg/10^5 and 3830.4 pg/10^5 and 3860.0 pg/10^5
- Concentration [1, 5]: 28932.4 pg/mL
- conc/live cell [1, 5]: 4694.7 pg/10^5
- Concentration [1, 6]: 29329.0 pg/mL and 29395.7 pg/mL and 28072.3 pg/mL
- conc/live cell [1, 6]: 4582.7 pg/10^5 and 4899.3 pg/10^5 and 4602.0 pg/10^5
- Concentration [1, 7]: 28457.4 pg/mL
- conc/live cell [1, 7]: 4886.3 pg/10^5
- Concentration [1, 8]: 28362.4 pg/mL and 28665.1 pg/mL and 28344.5 pg/mL
- conc/live cell [1, 8]: 4574.6 pg/10^5 and 5512.5 pg/10^5 and 4571.7 pg/10^5
- Concentration [1, 9]: 28059.0 pg/mL
- conc/live cell [1, 9]: 4314.1 pg/10^5
- Concentration [1, 10]: 28714.8 pg/mL and 27440.0 pg/mL and 28022.0 pg/mL
- conc/live cell [1, 10]: 4557.9 pg/10^5 and 3864.8 pg/10^5 and 4519.7 pg/10^5
- Concentration [1, 11]: 29972.3 pg/mL
- conc/live cell [1, 11]: 4549.0 pg/10^5
- Concentration [1, 12]: 30117.5 pg/mL and 30769.7 pg/mL and 29029.8 pg/mL
- conc/live cell [1, 12]: 5019.6 pg/10^5 and 4807.8 pg/10^5 and 3819.7 pg/10^5
- Concentration [1, 13]: 33310.8 pg/mL
- conc/live cell [1, 13]: 5765.5 pg/10^5
- Concentration [1, 14]: 35374.6 pg/mL and 31775.7 pg/mL and 32782.2 pg/mL
- conc/live cell [1, 14]: 5615.0 pg/10^5 and 5125.1 pg/10^5 and 6556.4 pg/10^5
- conc/live cell ([1]; PBMC + test article 0.01 uM, no LPS, Mean): 0.0 pg/10^5
- conc/live cell ([1]; PBMC + test article 0.1 uM, no LPS, Mean): 0.0 pg/10^5
- Concentration [1, 15]: 588.0 pg/mL
- conc/live cell [1, 15]: 53.5 pg/10^5
- Concentration [1, 16]: 588.0 pg/mL
- conc/live cell [1, 16]: 106.9 pg/10^5 and 0.0 pg/10^5
- Concentration [1, 17]: 1997.0 pg/mL
- conc/live cell [1, 17]: 156.0 pg/10^5
- Concentration [1, 18]: 1997.0 pg/mL
- conc/live cell [1, 18]: 312.0 pg/10^5 and 0.0 pg/10^5
- Concentration [1, 19]: 1030.2 pg/mL
- conc/live cell [1, 19]: 80.5 pg/10^5
- Concentration [1, 20]: 1030.2 pg/mL
- conc/live cell [1, 20]: 161.0 pg/10^5 and 0.0 pg/10^5
- Concentration, Bead name: IL-4 [2, 3]: 26.0 pg/mL
- MFI, Bead name: IL-4 [2, 3]: 1.0
- conc/live cell, Bead name: IL-4 [2, 3]: 4.0 pg/10^5
- Concentration, Bead name: IL-4 [2, 21]: 18.4 pg/mL and 33.2 pg/mL and 26.4 pg/mL
- MFI, Bead name: IL-4 [2, 21]: 0.0 and 2.0 and 1.0
- conc/live cell, Bead name: IL-4 [2, 21]: 3.2 pg/10^5 and 4.7 pg/10^5 and 4.0 pg/10^5
- Concentration, Bead name: IL-4 [2, 5]: 33.2 pg/mL
- MFI, Bead name: IL-4 [2, 5]: 2.0
- conc/live cell, Bead name: IL-4 [2, 5]: 5.4 pg/10^5
- Concentration, Bead name: IL-4 [2, 22]: 33.2 pg/mL
- MFI, Bead name: IL-4 [2, 22]: 2.0
- conc/live cell, Bead name: IL-4 [2, 22]: 5.2 pg/10^5 and 5.5 pg/10^5 and 5.4 pg/10^5
- Concentration, Bead name: IL-4 [2, 7]: 39.2 pg/mL
- MFI, Bead name: IL-4 [2, 7]: 3.0
